Data from patent publication US11779592B2, “Inhibition of NGLY1 for the treatment of cancer” (University of North Texas Health Science Center, priority 2017, dated 2023).
Residues, ends and D or L forms follow the SMILES beside them. *: point of attachment. Cbz = O=C(OCc1ccccc1)*; CH2F = FC*

Columns and labels:
human NGLY1 = target: T1, human NGLY1 (Homo sapiens, UniProt Q96IV0); experiment: RNase B deglycosylation assay with recombinant human NGLY1; assay type: biochemical
T1 construct: host or cells: HEK293T
T1 sequence (Q96IV0 1-654): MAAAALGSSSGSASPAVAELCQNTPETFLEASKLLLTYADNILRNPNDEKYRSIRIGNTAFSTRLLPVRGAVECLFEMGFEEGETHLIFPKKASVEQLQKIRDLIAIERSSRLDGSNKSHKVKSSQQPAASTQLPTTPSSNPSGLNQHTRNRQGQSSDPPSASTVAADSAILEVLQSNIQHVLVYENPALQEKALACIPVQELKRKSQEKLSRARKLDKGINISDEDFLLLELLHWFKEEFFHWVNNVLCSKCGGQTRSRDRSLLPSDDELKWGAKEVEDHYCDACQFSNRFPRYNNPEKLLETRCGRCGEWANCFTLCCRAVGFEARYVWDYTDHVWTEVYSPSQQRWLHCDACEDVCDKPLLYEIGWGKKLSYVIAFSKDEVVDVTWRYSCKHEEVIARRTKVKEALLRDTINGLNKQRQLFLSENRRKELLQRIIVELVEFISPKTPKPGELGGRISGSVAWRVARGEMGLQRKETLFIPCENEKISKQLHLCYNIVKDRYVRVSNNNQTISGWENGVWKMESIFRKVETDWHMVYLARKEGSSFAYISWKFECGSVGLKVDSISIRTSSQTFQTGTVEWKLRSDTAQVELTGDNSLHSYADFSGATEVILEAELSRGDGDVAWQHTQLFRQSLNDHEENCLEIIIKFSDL
Description: The computational homology model of human NGLY1 core domain was generated and used for studying interactions between NGLY1 and novel small molecules that are designed to covalently modified and inactivate the catalytic site of NGLY1. (FIG. 15A) The most favorable binding pose of Z-VAD-fmk, a short peptide with NGLY1 and caspase inhibitory activity, in the human NGLY1 homology model superimposed to the conformation of Z-VAD-fmk bound to mouse NGLY1 in a co-crystalized structure. […] RNase B (g): glycosylated RNase B. RNase B (dg): deglycosylated RNase B. Veh: vehicle (DMSO) treatment. M: molecular weight marker. Lower panel: the deglycosylation of NFE2L1 altered by the treatment of 20 μM Z-VAD-fmk and 200 μM NM-350 in bortezomib-treated HEK293T cells. The cells were pretreated with vehicle (DMSO), Z-VAD-fmk and NM-350 for 24 hours and subsequently subjected to concomitant treatment with 10 μM bortezomib for an additional 16 hours. Cell lysates reacted with and without 500 units of PNGase F for 2 hours were analyzed using Western blotting. Top arrowhead in lanes 2 and 3: fully glycosylated NFE2L1. Top arrowhead in lane 1: partially glycosylated NFE2L1. Bottom arrowhead: deglycosylated and truncated NFE2L1. […] The cell viability curve of combinatorial treatment was plotted according to the doses of dacarbazine used in the treatment. […] The cell viability curve of combinatorial treatment was plotted according to the doses of bortezomib used in the treatment. All the data of cell viability tests were presented as mean±standard deviation (n=3).
FLAG-tagged human NGLY1 was overexpressed by the transduction of the pLenti expression vector that carries a Myc-DDK-tagged-human NGLY1 open reading frame in HEK293T cells. Anti-FLAG magnetic beads (OriGene Technologies, Rockville, MD) were used to react with the lysate of HEK293T cells overnight at 4° C. in the presence of pan-protease inhibitors to purify the FLAG-tagged NGLY1. The magnetic beads were thoroughly washed using 0.5% Tween 20 in PBS for three times to minimize non-specific binding. The enrichment of recombinant human NGLY1 was checked by Western blotting of NGLY1 in the pull-down fraction. To perform RNase B deglycosylation assays, purified human NGLY1 on an equal volume of magnetic beads was incubated with PBS containing each of the indicated small molecules and control vehicle (DMSO) at 37° C. for 2 hours. The magnetic beads were then collected and resuspended in PBS containing 0.05% NP-40. Each magnetic bead suspension was mixed with 1 ug RNase B (Millipore Sigma, St. Louis, MO) that was pre-denatured using 5 mM DTT in the presence of 8M urea at 42° C. for 1 hour followed by the treatment of 25 mM iodoacetamide at room temperature for 1 hour and buffer exchange into PBS using Zeba 7K MWCO spin columns (Thermo Fisher Scientific, Carlsbad, CA). The mixtures of magnetic bead suspension and denatured RNase B were left at 37° C. for 16 hours. The proteins in each mixture were resolved by SDS-PAGE and visualized using SYPRO Ruby gel stain (Thermo Fisher Scientific, Carlsbad, CA).

SK-MEL-2 cells = experiment: Cell viability test (MTT) in SK-MEL-2 cells; assay type: cell-based, human
Description: (§1) Despite the frequent failure of chemotherapy in patients with melanoma, chemotherapy remains a frontline approach for treatment, especially in many patients who cannot afford immunotherapy or targeted therapy. […] Identifying novel approaches to enhance the efficacy of chemotherapy and targeted therapy agents in melanoma will greatly benefit many cancer patients. […] The IC50 of each drug treatment in each cell clone was calculated using CalcuSyn 2.0.
(§2) The dose effect of dox-induced expression of NGLY1 shRNA in each cell clone was also determined. The IC50 of each drug treatment in each cell clone was calculated using CalcuSyn 2.0. To determine the interaction between NGLY1 knockdown and each anticancer agent, cells were exposed to four-dose combinations of dox and an anticancer agent at a fixed dose ratio. The combination index (CI) value was calculated using CalcuSyn 2.0. CI values of less than 1 are considered a synergistic interaction. […]
(§3) Cells were seeded into 96-well plates (2,500-5,000 cells/well, depending on cell types), incubated overnight, and treated as indicated. […] Reduced MTT was solubilized in DMSO for determination of absorbance at 570 nm. Absorbance of reduced MTS was directly measured in the reaction medium at 490 nm. The relative cell viability in each treatment condition was calculated based on absorbance values.

NFE2L1 = experiment: Deglycosylation of NFE2L1 in bortezomib-treated HEK293T cells (Western blotting); assay type: cell-based; conditions: 24 hours pretreatment then 10 μM bortezomib 16 hours
Description: The computational homology model of human NGLY1 core domain was generated and used for studying interactions between NGLY1 and novel small molecules that are designed to covalently modified and inactivate the catalytic site of NGLY1. (FIG. 15A) The most favorable binding pose of Z-VAD-fmk, a short peptide with NGLY1 and caspase inhibitory activity, in the human NGLY1 homology model superimposed to the conformation of Z-VAD-fmk bound to mouse NGLY1 in a co-crystalized structure. […] RNase B (g): glycosylated RNase B. RNase B (dg): deglycosylated RNase B. Veh: vehicle (DMSO) treatment. M: molecular weight marker. Lower panel: the deglycosylation of NFE2L1 altered by the treatment of 20 μM Z-VAD-fmk and 200 μM NM-350 in bortezomib-treated HEK293T cells. The cells were pretreated with vehicle (DMSO), Z-VAD-fmk and NM-350 for 24 hours and subsequently subjected to concomitant treatment with 10 μM bortezomib for an additional 16 hours. Cell lysates reacted with and without 500 units of PNGase F for 2 hours were analyzed using Western blotting. Top arrowhead in lanes 2 and 3: fully glycosylated NFE2L1. Top arrowhead in lane 1: partially glycosylated NFE2L1. Bottom arrowhead: deglycosylated and truncated NFE2L1. […] The cell viability curve of combinatorial treatment was plotted according to the doses of dacarbazine used in the treatment. […]

MALME3M cells = assay type: cell-based; conditions: 20 μM, 72-hour treatment
Description: as §1, §2, §3

UACC257 cells = experiment: Cell viability test (MTT) in UACC257 cells; assay type: cell-based, human; conditions: 20 μM, 72-hour treatment
Description: as §1, §2, §3

[1] = test system: U-251MG glioblastoma cells; experiment: Cell morphology of U-251MG cells with NGLY1 knockdown; assay type: cell-based
HepG2 liver cancer cells = experiment: Cell morphology of HepG2 cells with NGLY1 knockdown; assay type: cell-based
NGLY1 = NGLY1 expression in stable clones of melanoma cells (immunoblotting); assay type: cell-based, human; conditions: stable clones of MALME3M, UACC257 and SK-MEL-2 cells, 48-hour treatment of dox
Description: These NGLY1-targeting shRNA sequences and a scrambled (non-targeting) shRNA sequence were cloned into doxycycline (dox)-inducible, polycistronic green fluorescence protein (GFP)-shRNA expression constructs (a pZIP inducible lentiviral vector, TransOMIC). Stable clones have been generated with the shRNA expression constructs in multiple human melanoma cell lines, including MALME3M, UACC257, SK-MEL-2, and COLO829 melanoma cells. […] Similar knockdown effects were found in the stable clones of other melanoma cells with this particular NGLY1 shRNA sequence. […] Similar to human normal fibroblasts, normal melanocytes (FIG. 5D) and keratinocytes appeared to well tolerate NGLY1 knockdown and show no sign of increased cell death. In addition, SK-MEL-2, MALME3M cells that express inducible NGLY1 shRNA presented significant apoptosis, compared to their scrambled RNA-expressing counterparts. The expression of exogenous human NGLY1 in melanoma cells attenuated NGLY1-targeting shRNA-induced apoptosis (FIG. 5E).
The knockdown of NGLY1 expression in melanoma cells was achieved by the transduction of pZIP-TRE3GS lentiviral expression vectors that carry two independent shRNA sequences (Below; TransOMIC Technologies, Huntsville, AL). […] The expression of the shRNA sequences and an open reading frame of the ZsGreen reporter is driven by the TRE3GS doxycycline-inducible promoter. […]

[2] = 2-hour reaction with human NGLY1

CCCNC(=O)[C@H](CC(=O)N[C@@H]1O[C@H](COC(C)=O)[C@@H](OC(C)=O)[C@H](OC(C)=O)[C@H]1NC(C)=O)NC(=O)CCl [NM-350, (2R,3S,4R,5R,6R)-5-Acetamido-2-(acetoxymethyl)-6-((S)-3-(2-chloroacetamido)-4-oxo-4-(propylamino)butanamido)tetrahydro-2H-pyran-3,4-diyl diacetate]
NGLY1 activity in the deglycosylation of denatured RNase B (human NGLY1; [2]): suppressed its activity
suppression of cell viability in combination (SK-MEL-2 cells; in combination with bortezomib): synergistically suppressed the viability
deglycosylation of NFE2L1 (NFE2L1; 200 μM): clear retention of N-glycans on NFE2L1

C=CC(=O)N[C@@H](CC(=O)N[C@@H]1O[C@H](COC(C)=O)[C@@H](OC(C)=O)[C@H](OC(C)=O)[C@H]1NC(C)=O)C(=O)NCCC [NM-322, (2R,3S,4R,5R,6R)-5-acetamido-2-(acetoxymethyl)-6-((S)-3-acrylamido-4-oxo-4-(propylamino)butanamido)tetrahydro-2H-pyran-3,4-diyl diacetate]
NGLY1 activity in the deglycosylation of denatured RNase B (human NGLY1; [2]): suppressed its activity
suppression of cell viability in combination (SK-MEL-2 cells; in combination with dacarbazine): synergistic effect

Cc1ccc(S(=O)(=O)/C=C/C(=O)N[C@@H](CCc2ccccc2)C(=O)NCCC(C)C)cc1 [WRR139, reference compound]
NGLY1 activity in the deglycosylation of denatured RNase B (human NGLY1; 2-hour reaction, 5 μM): suppressed its activity

CCCNC(=O)[C@H](CC(=O)N[C@@H]1O[C@H](COC(C)=O)[C@@H](OC(C)=O)[C@H](OC(C)=O)[C@H]1NC(C)=O)NC(=O)/C=C/CN(C)C [NM-354, (2R,3S,4R,5R,6R)-5-Acetamido-2-(acetoxymethyl)-6-((S)-3-((E)-4-(dimethylamino)but-2-enamido)-4-oxo-4-(propylamino)butanamido)tetrahydro-2H-pyran-3,4-diyl diacetate]
NGLY1 activity in the deglycosylation of denatured RNase B (human NGLY1; [2]): suppressed its activity

C=CS(=O)(=O)N[C@@H](CC(=O)N[C@@H]1O[C@H](COC(C)=O)[C@@H](OC(C)=O)[C@H](OC(C)=O)[C@H]1NC(C)=O)C(=O)NCCC [NM-348, (2R,3S,4R,5R,6R)-5-Acetamido-2-(acetoxymethyl)-6-((S)-4-oxo-4-(propylamino)-3-(vinylsulfonamido)butanamido)tetrahydro-2H-pyran-3,4-diyl diacetate]
NGLY1 activity in the deglycosylation of denatured RNase B (human NGLY1; [2]): suppressed its activity

N.N.[Cl][Pt][Cl] [cisplatin]
growth and cell death (MALME3M cells): moderate growth inhibition without increase of cell death
growth and cell death (UACC257 cells): moderate growth inhibition without increase of cell death

COC(=O)C[C@H](NC(=O)[C@H](C)NC(=O)[C@@H](NC(=O)OCc1ccccc1)C(C)C)C(=O)CF [Z-VAD-fmk, reference compound] (Cbz-Val-Ala-Asp(OMe)-CH2F)
NGLY1 activity in the deglycosylation of denatured RNase B (human NGLY1; 2-hour reaction, 20 μM): suppressed its activity
deglycosylation of NFE2L1 (NFE2L1; 20 μM): altered

B1: NGLY1-shRNA647: NGLY1-targeting shRNA sequence (SEQ ID NO: 6), dox-inducible lentiviral vector (nucleic acid)
DNA: AAAGCAUUACUUCGAGACACUAUAGUGAAGCCACAGAUGUAUAGUGUCUCGAAGUAAUGCUUCU
cell morphology [1]: morphology of apoptosis
cell morphology (HepG2 liver cancer cells): morphology of apoptosis
expression of NGLY1 (NGLY1): largely suppressed
